Reference: patent US7838521B2, “3-oxa-10-aza-phenanthrenes” (NYCOMED GmbH, priority 2004, dated 2010)

Target: T1, PDE4B2 (Homo sapiens, UniProt Q07343)
T1 construct: made in house; host or cells: SF21 insect cells (baculovirus prepared in SF9 cells, pCR-Bac vector)
Assay: Inhibition of PDE4 activity, [3H]cAMP SPA enzyme assay with recombinant PDE4B2
Assay type: biochemical
Conditions: recombinant PDE4B2 (GB no. M97515) expressed in SF21 insect cells; 0.5 μM cAMP; 15 min at 37° C.; read-out: PDE4 Inhibition [measured as −logIC50 (mol/l)] (converted)
Description: Method for Measuring Inhibition of PDE4 Activities
The PDE4B2 (GB no. M97515) was a gift of Prof. M. Conti (Stanford University, USA). It was amplified from the original plasmid (pCMV5) via PCR with primers Rb9 (5′-[…]-3′) and Rb10 (5′-[…]-3′) and cloned into the pCR-Bac vector (Invitrogen, Groningen, NL).
The recombinant baculovirus was prepared by means of homologous recombination in SF9 insect cells. The expression plasmids were co-transfected with Bac-N-Blue (Invitrogen, Groningen, NL) or BaculoGold DNA (Pharmingen, Hamburg) using a standard protocol (Pharmingen, Hamburg). Wt virus-free recombinant virus supernatants were selected using plaque assay methods. After that, high-titre virus supernatants were prepared by amplifying 3 times. PDE4B2 was expressed in SF21 cells by infecting 2×10^6 cells/ml with an MOI (multiplicity of infection) between 1 and 10 in serum-free SF900 medium (Life Technologies, Paisley, UK). The cells were cultured at 28° C. for 48-72 hours, after which they were pelleted for 5-10 min at 1000 g and 4° C.
The SF21 insect cells were resuspended, at a concentration of approx. 10^7 cells/ml, in ice-cold (4° C.) homogenization buffer (20 mM Tris, pH 8.2, containing the following additions: 140 mM NaCl, 3.8 mM KCl, 1 mM EGTA, 1 mM MgCl2, 10 mM p-mercaptoethanol, 2 mM benzamidine, 0.4 mM Pefablock, 10 μM leupeptin, 10 μM pepstatin A, 5 μM trypsin inhibitor) and disrupted by ultrasonication. The homogenate was then centrifuged for 10 min at 1000×g and the supernatant was stored at 80° C. until subsequent use (see below). The protein content was determined by the Bradford method (BioRad, Munich) using BSA as the standard.
PDE4B2 activity was inhibited by the said compounds in a modified SPA (scintillation proximity assay) test, supplied by Amersham Biosciences (see procedural instructions “phosphodiesterase [3H]cAMP SPA enzyme assay, code TRKQ 7090”), carried out in 96-well microtitre plates (MTP's). The test volume is 100 μl and contains 20 mM Tris buffer (pH 7.4), 0.1 mg of BSA (bovine serum albumin)/ml, 5 mM Mg^2+, 0.5 μM cAMP (including about 50,000 cpm of [3H]cAMP), 1 μl of the respective substance dilution in DMSO and sufficient recombinant PDE (1000×g supernatant, see above) to ensure that 10-20% of the cAMP is converted under the said experimental conditions. […] After a preincubation of 5 min at 37° C., the reaction is started by adding the substrate (cAMP) and the assays are incubated for a further 15 min; after that, they are stopped by adding SPA beads (50 μl). In accordance with the manufacturer's instructions, the SPA beads had previously been resuspended in water, but were then diluted 1:3 (v/v) in water; the diluted solution also contains 3 mM IBMX to ensure a complete PDE activity stop. After the beads have been sedimented (>30 min), the MTP's are analyzed in commercially available […] detection devices. The corresponding IC50 values of the compounds for the inhibition of PDE activities are determined from the concentration-effect curves by means of non-linear regression.
The inhibitory values determined for the compounds according to the invention follow from the following Table 1, in which the numbers of the compounds correspond to the numbers of the examples.

T1 sequence (Q07343 1-564 isoform Q07343-2): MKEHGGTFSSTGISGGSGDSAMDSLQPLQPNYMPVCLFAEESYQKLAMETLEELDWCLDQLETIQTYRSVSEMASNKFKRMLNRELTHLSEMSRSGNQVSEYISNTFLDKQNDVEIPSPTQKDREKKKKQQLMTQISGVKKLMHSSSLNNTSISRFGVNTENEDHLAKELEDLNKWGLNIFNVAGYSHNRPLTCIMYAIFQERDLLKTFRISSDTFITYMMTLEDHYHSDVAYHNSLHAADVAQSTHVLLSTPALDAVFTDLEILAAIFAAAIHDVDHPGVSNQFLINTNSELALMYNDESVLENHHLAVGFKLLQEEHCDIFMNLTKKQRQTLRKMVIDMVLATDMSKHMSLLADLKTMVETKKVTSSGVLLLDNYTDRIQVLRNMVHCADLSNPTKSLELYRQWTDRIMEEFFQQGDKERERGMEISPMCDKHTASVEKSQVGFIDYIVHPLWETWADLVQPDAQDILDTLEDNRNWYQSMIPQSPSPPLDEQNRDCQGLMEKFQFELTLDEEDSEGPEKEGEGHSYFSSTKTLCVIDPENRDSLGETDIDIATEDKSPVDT

SMILES	IC50 [nM]
CCOc1cc2c(cc1OC)C(c1ccc(C(=O)N(C(C)C)C(C)C)cc1)=N[C@@H]1CCOC[C@H]21 [Compound 1, 4-((4aR,10aR)-6-Ethoxy-7-methoxy-1,4,4a,10a-tetrahydro-2H-3-oxa-10-aza-phenanthren-9-yl)-N,N-diisopropyl-benzamide]	2.75
CCOc1cc2c(cc1OC)C(c1ccc(C(=O)OC)cc1)=N[C@@H]1CCOC[C@H]21 [Compound 2, 4-((4aR,10aR)-6-Ethoxy-7-methoxy-1,4,4a,10a-tetrahydro-2H-3-oxa-10-aza-phenanthren-9-yl)-benzoic acid methyl ester]	20
CCOc1cc2c(cc1OC)C(c1ccc(C(=O)O)cc1)=N[C@@H]1CCOC[C@H]21 [Compound 3, 4-((4aR,10aR)-6-Ethoxy-7-methoxy-1,4,4a,10a-tetrahydro-2H-3-oxa-10-aza-phenanthren-9-yl)-benzoic acid]	33.9
CCOc1cc2c(cc1OC)C(c1ccc(C(=O)N3CCOCC3)cc1)=N[C@@H]1CCOC[C@H]21 [Compound 4, 1-[4((4aR,10aR)-6-Ethoxy-7-methoxy-1,4,4a,10a-tetrahydro-2H-3oxa-10-aza-phenanthren-9-yl)-phenyl]-1-morpholin-4-yl-methanone]	39.8
CCOc1cc2c(cc1OC)C(c1ccc(C(=O)N(C)C)cc1)=N[C@@H]1CCOC[C@H]21 [Compound 5, 1-[4-((4aR,10aR)-6-Ethoxy-7-methoxy-1,4,4a,10a-tetrahydro-2H-3-oxa-10-aza-phenanthren-9-yl)]-N,N-dimethyl-benzamide]	57.5
CCOc1cc2c(cc1OC)C(c1ccc(C(=O)N3CCN(C)CC3)cc1)=N[C@@H]1CCOC[C@H]21 [Compound 6, 1-[4-((4aR,10aR)-6-Ethoxy-7-methoxy-1,4,4a,10a-tetrahydro-2H-3oxa-10-aza-phenanthren-9-yl)-phenyl-]1-(4-methyl-piperazin-1-yl)-methanone]	20.4
